Measured values reported in US20170273961A1, “NOVEL IMINONITRILE DERIVATIVES” (CURADEV PHARMA, PVT. LTD., priority 2014, published 2017).

These compounds were tested against T1, IDO1 (Mus musculus, UniProt P28776) (assay: Reduction of LPS induced plasma kynurenine levels in C57BL/6 mice). Details: LPS-injected (6 mg/kg i.p.) C57BL/6 mice; test compound given orally 20 h after LPS; plasma KYN by LC/MS/MS at 2 hr post dosing.
T1 construct: LPS-injected mice have been used as models to study IDO1 expression and activity; from tissue; host or cells: whole animal: LPS-injected C57BL/6 mice, with IDO1 induced in a variety of tissues
T1 sequence (P28776 whole entry): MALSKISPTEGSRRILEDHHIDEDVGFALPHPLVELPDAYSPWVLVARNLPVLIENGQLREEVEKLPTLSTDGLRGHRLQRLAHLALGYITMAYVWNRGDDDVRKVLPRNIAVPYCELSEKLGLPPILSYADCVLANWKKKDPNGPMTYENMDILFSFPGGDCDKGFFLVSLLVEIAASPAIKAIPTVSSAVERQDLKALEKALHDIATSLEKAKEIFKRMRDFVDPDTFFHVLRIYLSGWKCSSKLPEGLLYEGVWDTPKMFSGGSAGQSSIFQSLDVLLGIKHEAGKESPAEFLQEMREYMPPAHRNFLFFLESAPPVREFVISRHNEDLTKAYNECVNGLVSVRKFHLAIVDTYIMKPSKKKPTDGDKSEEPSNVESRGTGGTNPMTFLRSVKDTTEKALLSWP
Assay type: in vivo
Text: Inflammatory mediators such as Lipopolysaccharides (LPS) and Interferon-gamma (IFNg) are well-established inducers of IDO1 expression. Intraperitoneal (i.p.) administration of bacterial lipopolysaccharide (LPS) induces peak IDO1 activity in a variety of tissues within one day after LPS administration resulting in the production and release of kynurenine into the bloodstream (Takikawa, O., et al. (1986) J. Biol. Chem. 261:3648-53; Yoshida, H., et al. (1998) Cell 94:739-750). LPS-injected mice have been used as models to study IDO1 expression and activity. Three—eight fed C57 BL/6 mice (age 7-8 weeks, weight: about 20-22 g) were injected intrapritoneally with bacterial lipopolysaccharide (LPS; 26:B6 Sigma) at a concentration of 6 mg/kg. Animals were then housed in normal condition for 20 hours at which time the test compounds were administered orally in formulation containing 30% polyethylene glycol 400 (PEG 400) and 20% propylene glycol (PG) in normal saline (Dosing volume 10 mL/kg). Blood was drawn through retro-orbital bleeds into a tube containing 100 mM EDTA for plasma collection at the following times: just prior to LPS treatment, just prior to test compound dosing (0 hr) and then at 2 hr, 4 hr, 6 hr, 8 hr, 24 hr and 48 hr post-test compound dosing. Plasma KYN and drug levels were determined by LC/MS/MS using an API4000 mass spectrometer (Applied Biosystems) coupled to a Shimadzu Prominence LC system fitted with a C18 column.
The compounds of the invention decrease kynurenine levels. The compounds of the invention trigger a decrease of kynurenine levels at 2 hrs of at least 5%.
With CNC(=O)c1cc(-c2nccc(/C(C#N)=N/c3ccc(F)c(Cl)c3)c2O)ccn1 [Compound 07, N-(3-Chloro-4-fluorophenyl)-3-hydroxy-2′-(methylcarbamoyl)-[2,4′-bipyridine]-4-carbimidoyl nitrile] the “percentage of decrease of kynurenine level at two hours” value (from here on “percentage of decrease … at two hours”) was 43%. For N#C/C(=N\c1ccc(F)c(C(F)(F)F)c1)c1ccnc(C#N)c1O [Compound 03, 2-Cyano-N-(4-fluoro-3-(trifluoromethyl)phenyl)-3-hydroxyisonicotinimidoyl nitrile], the “percentage of decrease … at two hours” value was 25%. In the case of N#C/C(=N\c1cccc(C(F)(F)F)c1)c1ccncc1O [Compound 34, 3-Hydroxy-N-(3-(trifluoromethyl)phenyl)isonicotinimidoyl nitrile], the “percentage of decrease … at two hours” value is reported as 67%. With Cc1cc(-c2nccc(/C(C#N)=N/c3cccc(Cl)c3)c2O)ccn1 [Compound 23, N-(3-Chlorophenyl)-3-hydroxy-2′-methyl-[2,4′-bipyridine]-4-carbimidoyl nitrile] the “percentage of decrease … at two hours” value was 79%. In the case of Cc1cc(-c2nccc(/C(C#N)=N/c3ccc(F)c(Cl)c3)c2O)ccn1 [Compound 09, N-(3-Chloro-4-fluorophenyl)-3-hydroxy-2′-methyl-[2,4′-bipyridine]-4-carbimidoyl nitrile], the “percentage of decrease … at two hours” value is reported as 71%. For N#C/C(=N\c1ccc(F)c(F)c1)c1ccncc1O [Compound 36, N-(3,4-Difluorophenyl)-3-hydroxyisonicotinimidoyl nitrile], the “percentage of decrease … at two hours” value was 79%. With N#C/C(=N\c1ccc(F)c(Cl)c1)c1ccnc(C#N)c1O [Compound 02, N-(3-Chloro-4-fluorophenyl)-2-cyano-3-hydroxyIsonicotinimidoyl nitrile] the “percentage of decrease … at two hours” value was 45%. With Cc1cc(-c2nccc(/C(C#N)=N/c3cccc(C(F)(F)F)c3)c2O)ccn1 [Compound 38, 3-Hydroxy-2′-methyl-N-(3-(trifluoromethyl)phenyl)-[2,4′-bipyridine]-4-carbimidoyl nitrile] the “percentage of decrease … at two hours” value was 69%. For N#C/C(=N\c1ccc(F)c(Cl)c1)c1ccncc1O [Compound 01, N-(3-Chloro-4-fluorophenyl)-3-hydroxyisonicotinimidoyl nitrile], the “percentage of decrease … at two hours” value was 73%. For N#C/C(=N\c1cccc(F)c1)c1ccncc1O [Compound 35, N-(3-Fluorophenyl)-3-hydroxyisonIcotinimidoyl nitrile], the “percentage of decrease … at two hours” value was 74%. With CNC(=O)c1cc(-c2nccc(/C(C#N)=N/c3ccc(F)c(C(F)(F)F)c3)c2O)ccn1 [Compound 31, N-(4-Fluoro-3-(trifluoromethyl)phenyl)-3-hydroxy-2′-(methylcarbamoyl)-[2,4′-bipyridine]-4-carbimidoyl nitrile] the “percentage of decrease … at two hours” value was 43%. With N#C/C(=N\c1cccc(Cl)c1)c1ccncc1O [Compound 33, N-(3-Chlorophenyl)-3-hydroxyisonicotinimidoyl nitrile] the “percentage of decrease … at two hours” value was 80%. For N#C/C(=N\c1ccccc1Cl)c1ccnc(-c2ccncc2)c1O [Compound 20], the “percentage of decrease … at two hours” value was 46%. N#C/C(=N\c1ccc(F)c(C(F)(F)F)c1)c1ccncc1O [Compound 05, N-(4-Fluoro-3-(trifluoromethyl)phenyl)-3-hydroxyisonicotinimidoyl nitrile] was tested, and the “percentage of decrease … at two hours” value was 64%. N#C/C(=N\c1ccc(F)c(Cl)c1)c1ccnc(Nc2ccccc2)c1O [Compound 12, N-(3-Chloro-4-fluorophenyl)-3-hydroxy-2-(phenylamino)isonicotinimidoyl nitrile] was tested, and the “percentage of decrease … at two hours” value was 15%. Cc1cc(-c2nccc(/C(C#N)=N/c3cccc(F)c3)c2O)ccn1 [Compound 29, N-(3-Fluorophenyl)-3-hydroxy-2′-methyl-[2,4′-bipyridine]-4-carbimidoyl nitrile] was tested, and the “percentage of decrease … at two hours” value was 75%.
